The values that follow come from US9050326B2, “Amido derivatives-contained pharmaceutical composition” (priority 2008, dated 2015).

What is called solubility is how much of the substance goes into solution per volume.

Data set [1] is described as follows: Solubility, dissolution test of the 15th Edition of the Japanese Pharmacopoeia. Format: physicochemical. The settings on record: thermodynamic from solid, without storage, read-out: Solubility of compound A.
A short description of data set [2]: Chemical stability against heat in manufacturing a solid dispersion with a twin screw extruder (melting method). It counts as physicochemical. The text has this:
Salts, a clathrate, a solid dispersion, and the like are known as methods of improving the solubility of a slightly water-soluble drug. However, with respect to compound A per se, it is expected that a salt of compound A is desalted, even if the solubility is improved, and that the inclusion ability of cyclodextrin, which is commonly used as a host of clathrates, is low.

≈ marks a conversion by molar mass, not a printed value.

For the molecule `Cc1cccc(C)c1N(CC(=O)Nc1ccc(-c2ncon2)cc1)C(=O)C1CCS(=O)(=O)CC1` [Compound A, N-(2,6-Dimethylphenyl)-N-(2-{[4-(1,2,4-oxadiazol-3-yl)phenyl]amino}-2-oxoethyl)tetrahydro-2H-thiopyran-4-carboxamide 1,1-dioxide], in data set [1], the solubility was found to be 2 µg/mL (≈ 4.14 µM). Moreover, the “Chemical stability against heat” value in data set [2] is “low chemical stability against heat”.
